# Test results as given in patent US6313171A, “Method for preventing or treating elevated blood lipid level-related diseases by administering cinnamic acid derivatives” (Korea Research Institute of Bioscience & Biotechnology, priority 1998, dated 2001).
# Key:
# [1] = assay type: in vivo, rabbit (New Zealand White); conditions: rabbits, 1% cholesterol diet plus 0.1% derivative or 1 mg/kg Lovastatin, 8 weeks
# Procedure: (§1) 30 three-month-old male New Zealand White rabbits (Yeonam Horticulture and Animal Husbandry College, Korea), each weighing about 2.5 to 2.6 kg, were raised under condition of temperature 20±2° C., relative humidity 55±5%, and photoperiod 12L/12D. The rabbits were divided into 5 groups and 5 groups of rabbits were fed with 5 different diets, i.e., RC4 diet (Oriental Yeast Co., Japan) containing 1% cholesterol (Control group); 1% cholesterol plus 1 mg/kg Lovastatin® (Merck, U.S.A.) (Lovastatin group); 1% cholesterol plus 0.1% 4-hydroxycinnamic acid (4-hydroxycinnamic acid group); 1% cholesterol plus 0.1% 3,4-dihydroxycinnamic acid (3,4-dihydroxycinnamic acid group); and 1% cholesterol plus 0.1% 3,4-dihydroxyhydrocinnamic acid (3,4-dihydroxyhydrocinnamic acid group), respectively. RC4 diet comprises 7.6% moisture, 22.8% crude protein, 2.8% crude fat, 8.8% crude ash, 14.4% crude cellulose and 43.6% soluble nitrogen-free substances. Cinnamic acid derivatives were purchased from Sigma Chemical Co. (St. Louis, Mo.).
# (§2) The rabbits were fed for 8 weeks while being allowed free access to the diets and water.
# After eight weeks, the rabbits were anesthetized with an intramuscular injection of ketamine (50 mg/kg) in the femoral region and sacrificed. A blood sample was taken from the heart of each rabbit, allowed to stand for 2 hours and centrifuged at 3,000 rpm for 15 minutes and the supernatant serum was separated and stored in a freezer before use.
# The chemical analysis of blood was carried out by employing a blood chemical analyzer (CIBA Corning 550 Express, USA) to determine the changes in GOT, GPT, total cholesterol, HDL-cholesterol and triglyceride levels.
# main artery = test: Analysis for fatty streak in the main artery of rabbits; assay type: in vivo, rabbit (New Zealand White)
# Procedure: Cinnamic acid derivatives were purchased from Sigma Chemical Co. (St. Louis, Mo.). The rabbits were fed for 8 weeks while being allowed free access to the diets and water. The chest of each of the rabbits sacrificed in Step 2 was incised. […] The main artery was incised in the middle along the longitudinal axis and pinned to a dish. The moist artery was photographed and, then, the staining of fatty streaks was carried out in accordance with the method of […]., et al. (J. Lab. Clin. Med., 121, 103-110(1993)) as follows. A part of the incised main artery was washed three times with anhydrous propylene glycol for 2 min. and stained for 30 min. with a saturated solution of Oil Red O (ORO, Sigma Co.) dissolved in propylene glycol. Thereafter, the artery was washed twice with 85% propylene glycol for 3 min. to remove remaining staining solution and, then washed with physiological saline. The artery was photographed and the photograph was traced. The area of stained region (fatty streak region) was determined with an image analyzer (LEICA, Q-600, Germany) and its proportion (%) to the total arterial area was calculated.
# liver = test: Prevention of hepatic diseases: microscopic fatty liver grading in rabbits; assay type: in vivo, rabbit (New Zealand White)
# Procedure: as §1, §2
# [2] = Farmer et al. 1995; cited from earlier work
smiles,measurement,setting,value
"CC[C@H](C)C(=O)O[C@H]1C[C@@H](C)C=C2C=C[C@H](C)[C@H](CC[C@@H]3C[C@@H](O)CC(=O)O3)[C@H]21 [Lovastatin, reference compound]",HDL/TC,[1]; Control 2.5 ± 0.4,4.9 ± 2.6%
same,HDL-C (High density lipoprotein-cholesterol),[1]; Control 50 ± 11,58 ± 23 mg/dL
same,TG (Triglyceride),[1]; Control 170 ± 30,153 ± 95 mg/dL
same,TC (Total cholesterol),[1]; Control 1995 ± 472,1446 ± 263 mg/dL
same,macrophage-lipid complex on the arterial endothelium,"main artery; FIGS. 1A-1E, control: a thick layer",no or very thin layers of macrophage-lipid complex
same,Fatty streak,"main artery; proportion of total arterial area, Oil Red O, rabbits, 8 weeks, Control 80 ± 8",15 ± 3%
same,microscopic features of the liver,"liver; FIGS. 2A-2E, control: many cells containing excessive fat around the central vein",many cells containing excessive fat were observed around the central vein
same,fatty liver grade (1+ to 4+),"liver; grades 1+(0-25%), 2+(26-50%), 3+(51-75), 4+(76-100%), rabbits, 8 weeks, Control 3.2 ± 0.3",3.4 ± 0.5
same,side effects,[2],increase in creatine kinase in the liver and rhabdomyolysis
